Laboratory results as given in ChEMBL document CHEMBL4130365, “An overview of benzo[b]thiophene-based medicinal chemistry” (Eur J Med Chem, 2017).
Values after ≈ are worked out from the molar mass of the structure shown.

What was measured:
DU-145 = experiment: Growth inhibition of human DU145 cells; assay type: functional
NCI-H460 = experiment: Growth inhibition of human NCI-H460 cells; assay type: functional, cell-based
SW-1736 = experiment: Growth inhibition of human SW1736 cells; assay type: functional
SK-N-SH = experiment: Growth inhibition of human SK-N-SH cells; assay type: functional
[1] = tested on: Panel NCI-60 (60 carcinoma cell lines); experiment: Growth inhibition of human NCI60 cells; assay type: functional
Tubulin = experiment: Inhibition of tubulin polymerization (unknown origin); assay type: protein-complex assay, Homo sapiens
FaDu = experiment: Growth inhibition of human FADU cells; assay type: functional
BXPC-3 = experiment: Growth inhibition of human BxPC3 cells; assay type: functional
[2] = Antioxidant activity assessed as inhibition of DPPH radical formation at 1000 ug/ml relative to control; assay type: functional
Cholinesterase = Cholinesterase (Homo sapiens, UniProt P06276); experiment: Inhibition of BuChE (unknown origin)
Cholinesterase, sequence (P06276 whole entry): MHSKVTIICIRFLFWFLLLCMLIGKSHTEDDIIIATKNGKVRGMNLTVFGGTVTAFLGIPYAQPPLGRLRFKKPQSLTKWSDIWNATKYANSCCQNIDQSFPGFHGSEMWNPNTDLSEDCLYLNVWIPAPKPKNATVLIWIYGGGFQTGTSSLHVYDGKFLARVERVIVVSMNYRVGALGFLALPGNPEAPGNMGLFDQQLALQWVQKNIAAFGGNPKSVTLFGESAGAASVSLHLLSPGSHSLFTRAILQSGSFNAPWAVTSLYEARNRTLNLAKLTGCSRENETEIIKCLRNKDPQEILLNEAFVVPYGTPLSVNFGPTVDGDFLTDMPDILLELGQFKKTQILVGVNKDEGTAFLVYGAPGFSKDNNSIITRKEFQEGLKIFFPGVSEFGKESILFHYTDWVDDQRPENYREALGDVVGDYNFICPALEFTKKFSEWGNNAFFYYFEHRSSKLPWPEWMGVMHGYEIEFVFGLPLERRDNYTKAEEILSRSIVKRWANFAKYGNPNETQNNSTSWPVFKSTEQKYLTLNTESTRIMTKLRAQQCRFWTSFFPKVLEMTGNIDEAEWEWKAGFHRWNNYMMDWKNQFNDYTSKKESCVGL

Acetylcholinesterase [3] = target: T1, Acetylcholinesterase (Homo sapiens, UniProt P22303); experiment: Inhibition of AChE (unknown origin)
T1 sequence (P22303 whole entry): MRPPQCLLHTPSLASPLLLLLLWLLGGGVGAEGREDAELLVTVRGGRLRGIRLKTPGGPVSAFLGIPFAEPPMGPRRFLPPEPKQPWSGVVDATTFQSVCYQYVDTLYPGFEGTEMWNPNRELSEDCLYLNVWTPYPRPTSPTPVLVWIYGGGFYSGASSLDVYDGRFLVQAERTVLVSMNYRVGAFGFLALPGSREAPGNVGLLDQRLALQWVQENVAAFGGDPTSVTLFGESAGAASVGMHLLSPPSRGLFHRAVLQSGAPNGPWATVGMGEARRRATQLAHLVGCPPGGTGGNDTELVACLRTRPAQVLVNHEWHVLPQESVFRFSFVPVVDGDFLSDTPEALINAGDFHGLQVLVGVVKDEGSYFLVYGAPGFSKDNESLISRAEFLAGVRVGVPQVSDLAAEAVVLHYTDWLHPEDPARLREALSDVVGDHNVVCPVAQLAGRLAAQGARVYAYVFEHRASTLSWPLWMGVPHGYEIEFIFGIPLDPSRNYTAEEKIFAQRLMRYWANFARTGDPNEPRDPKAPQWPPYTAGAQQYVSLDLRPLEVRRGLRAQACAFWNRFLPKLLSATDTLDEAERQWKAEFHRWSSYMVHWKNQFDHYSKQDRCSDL

Neutrophil = experiment: Anti inflammatory activity in human neuterophils preincubated for 10 mins followed by zymosan activated serum addition measured for 30 mins; assay type: functional, cell-based
Rattus norvegicus [4] = experiment: Anti-inflammatory activity in rat assessed as inhibition of hind paw edema relative to control; assay type: functional
[5] = Antioxidant activity assessed as inhibition of superoxide anion radical formation after 5 mins in presence of PMS and NADH by nitroblue tetrazolium method relative to control; assay type: functional
Staphylococcus aureus = experiment: Antibacterial activity against Staphylococcus aureus at 5 ug/disc; assay type: functional; conditions: read-out: IZ
Bacillus subtilis = experiment: Antibacterial activity against Bacillus subtilis at 5 ug/disc; assay type: functional; conditions: read-out: IZ
Escherichia coli [6] = experiment: Antibacterial activity against Escherichia coli ATCC 35218 at 40 ug/ml after 48 hrs by filter paper disc method; assay type: functional; conditions: ATCC 35218, 48 h, read-out: IZ
[7] = Antioxidant activity assessed as inhibition of DPPH radical formation at 100 ug/ml relative to control; assay type: functional
Estrogen receptor [8] = target: T2, Estrogen receptor (Homo sapiens, UniProt P03372); experiment: Agonist activity at ER in human Ishikawa cells assessed as alkaline phosphatase induction after 72 hrs by PNPP substrate based spectophotometric method; assay type: cell-based
T2 sequence (P03372 whole entry): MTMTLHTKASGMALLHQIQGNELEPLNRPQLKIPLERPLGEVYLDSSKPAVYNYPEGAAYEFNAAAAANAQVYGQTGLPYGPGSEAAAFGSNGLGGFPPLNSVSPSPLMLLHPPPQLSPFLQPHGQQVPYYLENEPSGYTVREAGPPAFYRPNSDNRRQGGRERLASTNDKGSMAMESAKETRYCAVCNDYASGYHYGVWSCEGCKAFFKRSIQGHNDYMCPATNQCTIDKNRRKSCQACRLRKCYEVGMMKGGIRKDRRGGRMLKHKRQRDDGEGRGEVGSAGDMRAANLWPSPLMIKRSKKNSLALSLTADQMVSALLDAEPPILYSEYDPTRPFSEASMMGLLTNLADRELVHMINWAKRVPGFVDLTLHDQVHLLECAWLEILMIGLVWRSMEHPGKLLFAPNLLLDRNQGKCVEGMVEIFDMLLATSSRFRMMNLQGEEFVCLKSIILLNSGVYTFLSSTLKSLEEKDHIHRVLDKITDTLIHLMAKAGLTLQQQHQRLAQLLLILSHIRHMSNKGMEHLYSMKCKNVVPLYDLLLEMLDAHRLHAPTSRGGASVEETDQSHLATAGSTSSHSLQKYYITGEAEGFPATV

Estrogen receptor [9] = target: T2, Estrogen receptor; experiment: Antagonist activity at ER in human Ishikawa cells assessed as inhibition of E2-induced alkaline phosphatase induction after 72 hrs by PNPP substrate based spectophotometric method; assay type: cell-based
Estrogen receptor [10] = target: T2, Estrogen receptor; experiment: Binding affinity to ERalpha (unknown origin)
Estrogen receptor beta = Estrogen receptor beta (Homo sapiens, UniProt Q92731); experiment: Binding affinity to ERbeta (unknown origin)
Estrogen receptor beta, sequence (Q92731 whole entry): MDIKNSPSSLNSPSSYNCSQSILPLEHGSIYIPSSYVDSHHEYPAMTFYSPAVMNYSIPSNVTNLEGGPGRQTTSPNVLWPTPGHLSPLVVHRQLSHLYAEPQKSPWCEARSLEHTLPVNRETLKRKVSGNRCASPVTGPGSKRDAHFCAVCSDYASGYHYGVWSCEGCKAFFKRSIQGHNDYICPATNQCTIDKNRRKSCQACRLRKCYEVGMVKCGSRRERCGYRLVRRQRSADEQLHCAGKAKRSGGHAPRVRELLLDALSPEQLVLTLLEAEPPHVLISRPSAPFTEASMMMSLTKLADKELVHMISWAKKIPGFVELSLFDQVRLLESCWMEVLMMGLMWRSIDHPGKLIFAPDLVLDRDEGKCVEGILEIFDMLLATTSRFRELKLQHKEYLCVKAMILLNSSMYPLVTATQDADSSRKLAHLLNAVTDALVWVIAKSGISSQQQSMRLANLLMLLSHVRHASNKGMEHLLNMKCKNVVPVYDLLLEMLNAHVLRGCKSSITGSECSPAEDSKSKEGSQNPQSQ

Candida albicans = experiment: Antifungal activity against Candida albicans at 1000 ug/ml after 48 hrs by filter paper disc method; assay type: functional; conditions: read-out: IZ
[11] = target: Calpain-1 catalytic subunit (Homo sapiens, UniProt P07384); experiment: Inhibition of human erythrocytes mu-calpain using SucLeu-Tyr-AMC as substrate
Calpain-1 catalytic subunit, sequence (P07384 whole entry): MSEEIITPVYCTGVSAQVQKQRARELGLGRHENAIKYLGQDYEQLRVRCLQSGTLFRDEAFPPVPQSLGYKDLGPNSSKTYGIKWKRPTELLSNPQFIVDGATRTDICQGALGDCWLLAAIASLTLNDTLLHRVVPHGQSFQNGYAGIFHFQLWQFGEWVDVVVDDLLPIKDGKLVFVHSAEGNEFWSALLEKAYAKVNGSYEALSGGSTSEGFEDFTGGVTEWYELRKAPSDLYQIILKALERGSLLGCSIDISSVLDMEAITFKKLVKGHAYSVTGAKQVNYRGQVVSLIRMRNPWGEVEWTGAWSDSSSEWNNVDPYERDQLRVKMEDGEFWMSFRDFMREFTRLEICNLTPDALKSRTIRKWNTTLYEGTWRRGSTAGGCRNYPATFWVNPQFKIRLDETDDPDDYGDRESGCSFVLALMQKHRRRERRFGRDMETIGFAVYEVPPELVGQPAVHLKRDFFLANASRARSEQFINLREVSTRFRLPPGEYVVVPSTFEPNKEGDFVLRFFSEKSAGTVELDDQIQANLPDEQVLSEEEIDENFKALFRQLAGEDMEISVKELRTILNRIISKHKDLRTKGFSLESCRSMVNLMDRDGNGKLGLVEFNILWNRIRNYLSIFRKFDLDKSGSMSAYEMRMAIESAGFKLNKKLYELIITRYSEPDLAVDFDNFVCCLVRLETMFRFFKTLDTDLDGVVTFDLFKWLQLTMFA

[12] = target: Gamma-aminobutyric acid receptor subunit alpha-5 (Homo sapiens, UniProt P31644); experiment: Antagonist activity at human GABA-A alpha5 receptor expressed in HEK293 cell membranes assessed as inhibition of GABA-induced response preincubated for 40 mins followed by GABA addition by FLIPR assay; assay type: cell-based
[13] = target: Gamma-aminobutyric acid receptor subunit alpha-1 (Homo sapiens, UniProt P14867); experiment: Antagonist activity at human GABA-A alpha1 receptor expressed in HEK293 cell membranes assessed as inhibition of GABA-induced response preincubated for 40 mins followed by GABA addition by FLIPR assay; assay type: cell-based
Gamma-aminobutyric acid receptor subunit alpha-1, sequence (P14867 whole entry): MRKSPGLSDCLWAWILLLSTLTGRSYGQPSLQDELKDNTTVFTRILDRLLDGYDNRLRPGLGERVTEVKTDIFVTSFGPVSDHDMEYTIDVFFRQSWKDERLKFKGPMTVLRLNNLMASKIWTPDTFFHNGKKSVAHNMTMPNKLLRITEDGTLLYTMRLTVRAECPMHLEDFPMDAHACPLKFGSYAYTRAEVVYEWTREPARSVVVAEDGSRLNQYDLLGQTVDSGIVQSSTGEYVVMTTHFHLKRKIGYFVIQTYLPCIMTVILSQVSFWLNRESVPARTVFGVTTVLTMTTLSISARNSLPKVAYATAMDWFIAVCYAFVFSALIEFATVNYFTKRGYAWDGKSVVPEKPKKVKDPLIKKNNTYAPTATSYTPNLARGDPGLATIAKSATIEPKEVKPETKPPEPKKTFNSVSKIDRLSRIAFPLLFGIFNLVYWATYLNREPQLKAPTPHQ

MCF7 = experiment: Inhibition of 17beta-estradiol-induced human MCF7 cells proliferation assessed as reduction in [3H]thymidine incorporation preincubated for 48 hrs followed by [3H]thymidine addition measured after 4 hrs by liquid scintillation counting method; assay type: functional, cell-based
Rattus norvegicus [14] = experiment: Inhibition of glucose-induced sorbitol accumulation in sciatic nerve of streptozotocin-induced diabetic rat model administered via oral gavage at 4 to 24 hrs post streptozotocin treatment measured at 27 hrs post streptozotocin treatment relative to control; assay type: functional
Pseudomonas aeruginosa = experiment: Antibacterial activity against Pseudomonas aeruginosa by broth dilution method; assay type: functional
Aspergillus niger [15] = experiment: Antifungal activity against Aspergillus niger by broth dilution method; assay type: functional
Aspergillus clavatus = experiment: Antifungal activity against Aspergillus clavatus by broth dilution method; assay type: functional
Penicillium chrysogenum = experiment: Antifungal activity against Penicillium notatum at 1000 ug/ml after 48 hrs by filter paper disc method; assay type: functional; conditions: read-out: IZ
Aspergillus niger [16] = experiment: Antifungal activity against Aspergillus niger at 1000 ug/ml after 48 hrs by filter paper disc method; assay type: functional; conditions: read-out: IZ
[17] = target: Protein deacetylase HDAC6 (Homo sapiens, UniProt Q9UBN7); experiment: Inhibition of HDAC6 (unknown origin)
Protein deacetylase HDAC6, sequence (Q9UBN7 whole entry): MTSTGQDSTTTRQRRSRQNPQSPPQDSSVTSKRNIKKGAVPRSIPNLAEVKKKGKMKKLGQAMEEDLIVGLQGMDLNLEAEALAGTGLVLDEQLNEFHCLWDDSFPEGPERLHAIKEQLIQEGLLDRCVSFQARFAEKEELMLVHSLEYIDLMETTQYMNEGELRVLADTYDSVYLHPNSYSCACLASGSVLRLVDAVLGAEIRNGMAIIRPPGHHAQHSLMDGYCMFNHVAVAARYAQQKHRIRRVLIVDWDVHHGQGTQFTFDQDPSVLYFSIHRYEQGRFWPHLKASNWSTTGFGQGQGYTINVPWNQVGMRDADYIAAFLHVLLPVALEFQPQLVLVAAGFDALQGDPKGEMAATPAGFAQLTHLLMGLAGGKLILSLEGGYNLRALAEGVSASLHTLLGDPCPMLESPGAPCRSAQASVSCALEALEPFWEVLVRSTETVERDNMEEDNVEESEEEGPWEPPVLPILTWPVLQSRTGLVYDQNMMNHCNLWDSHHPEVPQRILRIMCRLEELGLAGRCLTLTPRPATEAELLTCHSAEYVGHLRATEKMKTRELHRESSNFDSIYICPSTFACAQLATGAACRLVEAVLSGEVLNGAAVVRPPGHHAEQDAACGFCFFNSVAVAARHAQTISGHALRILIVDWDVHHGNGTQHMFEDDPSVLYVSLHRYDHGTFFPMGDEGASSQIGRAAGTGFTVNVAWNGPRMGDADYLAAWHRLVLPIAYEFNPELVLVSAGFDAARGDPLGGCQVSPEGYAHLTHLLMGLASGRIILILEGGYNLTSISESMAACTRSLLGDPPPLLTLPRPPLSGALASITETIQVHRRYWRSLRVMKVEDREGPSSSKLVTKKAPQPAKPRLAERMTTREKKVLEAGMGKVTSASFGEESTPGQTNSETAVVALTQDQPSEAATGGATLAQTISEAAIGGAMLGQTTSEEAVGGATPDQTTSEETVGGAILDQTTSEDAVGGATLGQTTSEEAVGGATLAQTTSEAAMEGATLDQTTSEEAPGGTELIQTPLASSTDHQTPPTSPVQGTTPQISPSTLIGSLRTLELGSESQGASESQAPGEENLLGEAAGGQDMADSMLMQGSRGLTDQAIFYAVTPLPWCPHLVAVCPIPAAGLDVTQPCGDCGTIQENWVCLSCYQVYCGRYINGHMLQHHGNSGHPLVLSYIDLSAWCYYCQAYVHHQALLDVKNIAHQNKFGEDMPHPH

Acetylcholinesterase [18] = target: T1, Acetylcholinesterase; experiment: Inhibition of AChE (unknown origin) using acetylthiocholine as substrate by Ellman's method relative to control; conditions: concentration not given here
Escherichia coli [19] = experiment: Antibacterial activity against Escherichia coli ATCC 35218 at 1000 ug/ml after 48 hrs by filter paper disc method; assay type: functional; conditions: ATCC 35218, 48 h, read-out: IZ
Bacillus spizizenii = experiment: Antibacterial activity against Bacillus subtilis ATCC 6633 at 1000 ug/ml after 48 hrs by filter paper disc method; assay type: functional; conditions: ATCC 6633, 48 h, read-out: IZ
[20] = 1-octanol/phosphate buffer partition coefficient, log P of the compound at pH 7.4 by ultraviolet spectrophotometric method; assay type: physicochemical
[21] = target: T3, Amyloid-beta precursor protein (Homo sapiens, UniProt P05067); experiment: Inhibition of [125I]2-(3'-Iodo-4'-N-methylaminophenyl) benzothiazole binding to amyloid beta (1 to 42) (unknown origin) after 3 hrs by NaI well counting method
T3 sequence (P05067 whole entry): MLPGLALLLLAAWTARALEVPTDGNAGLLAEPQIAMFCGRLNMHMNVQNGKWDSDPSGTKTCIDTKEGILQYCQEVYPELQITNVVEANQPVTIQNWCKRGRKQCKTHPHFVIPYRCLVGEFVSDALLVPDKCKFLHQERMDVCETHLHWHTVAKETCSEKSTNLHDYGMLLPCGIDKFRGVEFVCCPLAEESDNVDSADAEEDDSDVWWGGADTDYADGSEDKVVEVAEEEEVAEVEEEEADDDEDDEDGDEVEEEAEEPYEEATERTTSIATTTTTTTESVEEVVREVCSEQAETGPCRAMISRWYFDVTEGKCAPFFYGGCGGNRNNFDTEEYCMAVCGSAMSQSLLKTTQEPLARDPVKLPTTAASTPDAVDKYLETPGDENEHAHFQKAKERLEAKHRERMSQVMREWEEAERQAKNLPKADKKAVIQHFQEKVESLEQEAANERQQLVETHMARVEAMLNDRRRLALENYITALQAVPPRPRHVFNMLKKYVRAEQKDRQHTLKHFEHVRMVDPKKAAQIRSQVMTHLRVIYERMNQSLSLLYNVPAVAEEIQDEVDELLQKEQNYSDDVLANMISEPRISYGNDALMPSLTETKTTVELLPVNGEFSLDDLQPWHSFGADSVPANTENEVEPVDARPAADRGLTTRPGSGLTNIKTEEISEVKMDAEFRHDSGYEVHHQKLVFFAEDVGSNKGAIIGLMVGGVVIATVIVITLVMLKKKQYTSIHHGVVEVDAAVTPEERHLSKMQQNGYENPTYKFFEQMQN

[22] = target: T3, Amyloid-beta precursor protein; experiment: Inhibition of [125I]2-(3'-Iodo-4'-N-methylaminophenyl) benzothiazole binding to amyloid beta (1 to 40) (unknown origin) after 3 hrs by NaI well counting method

In the case of `COc1ccc(-c2sc3cc(OC)ccc3c2Oc2cc(OC)c(OC)c(OC)c2)cc1`, the GI50 (DU-145) is reported as 0.42 µg/mL (≈ 0.928 µM), the GI50 (NCI-H460) is reported as 0.31 µg/mL (≈ 0.685 µM) and the GI50 (SW-1736) is reported as 0.73 µg/mL (≈ 1.61 µM). The GI50 (SK-N-SH) was 0.063 µg/mL (≈ 0.139 µM), the GI50 [1] was 0.49 µM and the IC50 (Tubulin) was 0.88 µM. For the same compound, the GI50 (FaDu) was 0.098 µg/mL (≈ 0.217 µM) and the GI50 (BXPC-3) was 0.23 µg/mL (≈ 0.508 µM).
For `CCOC(=O)c1c(-n2c(-c3ccccc3)nc3c(Br)cc(Br)cc3c2=O)sc2c1CCCC2`, the inhibition [2] was 67%.
`O=C1SCc2ccccc21` showed a Ki (Cholinesterase) of 4890 µM and a Ki (Acetylcholinesterase [3]) of 59.8 µM.
In the case of `CCOC(=O)c1c(N)sc2c1CCCC2`, the IC50 (Neutrophil) is reported as 121 µM, the “inhibition (INH)” value (Rattus norvegicus [4]) is reported as 61% and the inhibition [5] is reported as 58.6%.
Compound `COc1cccc(C2OC(c3sc4ccccc4c3Cl)=NN2C(C)=O)c1` (centres undefined) has a zone of inhibition at 5 µg/disc (Staphylococcus aureus) of 30 mm and a zone of inhibition at 5 µg/disc (Bacillus subtilis) of 27 mm.
`Cc1ccccc1NNC(=O)Nc1sc2ccccc2c1Cl` gave a zone of inhibition at 40 µg/mL (Escherichia coli [6]) of 13 mm.
Compound `COc1ccc(C2OC(c3sc4ccccc4c3Cl)=NN2C(C)=O)cc1` (centres undefined) has a zone of inhibition at 5 µg/disc (Staphylococcus aureus) of 28 mm and a zone of inhibition at 5 µg/disc (Bacillus subtilis) of 28 mm.
`Cc1cc(=O)oc2c(/C=N/NC(=O)c3sc4ccccc4c3Cl)c(O)ccc12` gave an inhibition [7] of 70%.
With `CCOC(=O)c1c(NC(=O)C(Cl)Cl)sc2c1CCCC2` the IC50 (Neutrophil) was 396 µM and the “inhibition (INH)” value (Rattus norvegicus [4]) was 81%.
In the case of `Oc1ccc2c(c1)C(c1ccc(OCCN3CCCCC3)cc1)c1c(sc3cc(O)ccc13)C2` (centres undefined), the EC50 (Estrogen receptor [8]) is reported as 0.0009 µM, the IC50 (Estrogen receptor [9]) is reported as 0.053 µM and the Ki (Estrogen receptor [10]) is reported as 0.0005 µM. It also gave a Ki (Estrogen receptor beta) of 0.0009 µM.
Work on `O=C1SCc2cccc([N+](=O)[O-])c21` yielded a Ki (Cholinesterase) of 341 µM and a Ki (Acetylcholinesterase [3]) of 11.8 µM.
Work on `O=C(CSc1nnc(-c2sc3ccccc3c2Cl)[nH]1)c1ccccc1` yielded a zone of inhibition at 1000 µg/mL (Candida albicans) of 16 mm.
With `NC(=O)C(=O)C(Cc1ccccc1)NC(=O)C1CCN(c2cc3ccccc3s2)CC1` (centres undefined) the Ki [11] was 0.009 µM.
Work on `CC1=NN=C(c2cc3c(C(F)(F)F)cccc3s2)c2cc3oc(=O)[nH]c3cc2C1` yielded an IC50 [12] of 0.201 µM and an IC50 [13] of 0.479 µM.
`O=C(c1ccc(OCCN2CCCCC2)cc1)c1c(-c2ccc(Cl)cc2)sc2cc(O)ccc12` gave an IC50 (MCF7) of 0.001 µM.
With `O=C(O)Cc1nn(Cc2nc3cc(C(F)(F)F)ccc3s2)c(=O)c2ccccc12` [ZOPOLRESTAT] the “inhibition (INH)” value (Rattus norvegicus [14]) was 80%.
For `CC1(C)CC(=O)C2=C(C1)NC(=O)NC2c1cn(C(=O)c2sc3ccc(F)cc3c2Cl)c2ccccc12` (centres undefined), the MIC (Pseudomonas aeruginosa) was 100 µg/mL (≈ 192 µM), the MIC (Aspergillus niger [15]) was 100 µg/mL (≈ 192 µM) and the MIC (Aspergillus clavatus) was 100 µg/mL (≈ 192 µM).
`Clc1c(NNc2nc(-c3ccccc3)cs2)sc2ccccc12` gave a zone of inhibition at 1000 µg/mL (Candida albicans) of 15 mm.
`Nc1c(C(=O)Nn2c(=O)cc(-c3ccccc3)c3ccc(O)cc32)sc2cc(F)ccc12` gave a zone of inhibition at 1000 µg/mL (Penicillium chrysogenum) of 26 mm and a zone of inhibition at 1000 µg/mL (Aspergillus niger [16]) of 27 mm.
In the case of `CNC(=O)c1ccc(Nc2c[nH]c3ccccc23)cc1`, the IC50 [17] is reported as 0.2 µM.
Work on `CNC(=O)c1ccc(Nc2csc3ccccc23)cc1` yielded an IC50 [17] of 0.014 µM.
Compound `NC(=O)c1c(NC(=O)CN2CCN(Cc3ccccc3)CC2)sc2c1CCCC2` has an inhibition (Acetylcholinesterase [18]) of 56.7%.
`O=C(c1ccc(OCCN2CCCCC2)cc1)c1c(-c2ccc(O)cc2)sc2cccc(O)c12` showed an IC50 (MCF7) of 0.19 µM.
For `O=C(O)Cc1nn(Cc2cc3cc(F)ccc3s2)c(=O)c2ccccc12`, the “inhibition (INH)” value (Rattus norvegicus [14]) was 49%.
Work on `COc1ccc(-c2c(Oc3cc(OC)c(OC)c(OC)c3)c3ccc(OC)cc3[s+]2[O-])cc1` (centres undefined) yielded a GI50 (DU-145) of 7.3 µg/mL (≈ 15.6 µM), a GI50 (NCI-H460) of 3.2 µg/mL (≈ 6.83 µM) and a GI50 (SW-1736) of 3.7 µg/mL (≈ 7.9 µM). The GI50 (SK-N-SH) was 1.9 µg/mL (≈ 4.06 µM), the GI50 (FaDu) was 3.4 µg/mL (≈ 7.26 µM) and the GI50 (BXPC-3) was 2.1 µg/mL (≈ 4.48 µM).
`O=c1[nH]c(-c2sc3ccccc3c2Cl)nc2ccccc12` showed a zone of inhibition at 1000 µg/mL (Escherichia coli [19]) of 16 mm and a zone of inhibition at 1000 µg/mL (Bacillus spizizenii) of 15 mm.
In the case of `Oc1ccc(-c2cc3ccccc3s2)cc1`, the logD [20] is reported as 2.99, the Ki [21] is reported as 0.00372 µM and the Ki [22] is reported as 0.00304 µM.
Compound `CCOC(=O)c1c(NC(=O)CN2CCN(Cc3ccccc3)CC2)sc2c1CCCC2` has an inhibition (Acetylcholinesterase [18]) of 38.4%.
In the case of `O=C(O)Cc1nn(Cc2cc3ccccc3s2)c(=O)c2ccccc12`, the “inhibition (INH)” value (Rattus norvegicus [14]) is reported as 77%.
For `Cc1cccc(NC(=O)Nc2sc3ccccc3c2Cl)c1`, the zone of inhibition at 40 µg/mL (Escherichia coli [6]) was 13 mm.
With `Nc1ccc(-c2cc3ccccc3s2)cc1` the logD [20] was 2.87, the Ki [21] was 0.0065 µM and the Ki [22] was 0.00431 µM.
Compound `O=c1c2ccccc2nc(-c2sc3ccccc3c2Cl)n1O` has a zone of inhibition at 1000 µg/mL (Escherichia coli [19]) of 12 mm and a zone of inhibition at 1000 µg/mL (Bacillus spizizenii) of 16 mm.
